Reference: patent publication EP0103895A2, “Novel hydroxylamine derivatives, production and use thereof” (MEIJI SEIKA KABUSHIKI KAISHA, priority 1982, dated 1984)
“And” between values parts separate entries of the source, which are not always exact repeats. Identical values can stand only once. Like-named read-outs stand apart in the source and are kept apart here.

What was measured:
[1] = system: fowl roundworm (As. galli); experiment: Anthelmintic test in chickens artificially infected with fowl roundworm, compound added to feed, E.P.G. and worm count up to 21st day (Test Examples A2, B2, C2, D2); format: in vivo, Ascaridia galli; conditions: Ascaridia galli, 504 h, read-out: Anthelmintic effect
[2] = system: Trichostrongylidae (Trichostrongylus colubriformis); experiment: Anthelmintic test against sheep Trichostrongylidae in naturally infected sheep, E.P.G. on 7th day (Test Examples A7, B7, C7, D7); format: in vivo; conditions: for anthelmintic effect: one administration of 15 mg/Kg
Protocol: Two sheep infected with Trichostrongylidae (naturally infected sheep) were employed.
The compound provided for the test was Compound No. Al, 15 mg of which was placed in a gelatin capsule per 1 Kg of body weight and administered orally to one of the sheep. As a control, only gelatin capsules were administered orally to the other sheep.
(§1) Before administration and on the 7th day after administration, fecal matter testing was conducted to calculate the E.P.G., and the anthelmintic effect was judged by the changing of the E.P.G. to negative.
As control, only gelatin capsules were administered orally to the other sheep.
As control, only gelatin capsule was administered orally to the other sheep.

[3] = system: canine strongyloides (Strongyloides stercoralis); experiment: Anthelmintic test against canine strongyloides in naturally infected dogs, E.P.G. on 7th day (Test Examples A4, B4, C4, D4); format: in vivo
Protocol: Three dogs infected with canine strongyloides (naturally infected dogs) were employed by grouping them into a group of two and a group of one.
As control, only a gelatin capsule was administered orally to the one dog.
as §1
(§2) As control, only gelatin capsules were administered orally to the one dog.
as §2

[4] = system: swine roundworm (Ascaris suum); experiment: Test of anthelmintic effect in naturally infected pigs, E.P.G. on 7th day: swine roundworm (Test Examples A9, B9, C9, D9); format: in vivo
Protocol: (§3) Six pigs infected with swine roundworm and swine whipworm (naturally infected pigs) were employed in groups each of two pigs.
(§4) As a control, only gelatin capsules were administered orally to the two pigs.
(§5) Before administration and on the 7th day after. administration, fecal matter testing was conducted to calculate the E.P.G., and the anthelmintic effect was judged by the changing of the E.P.G. to negative'.
(§6) 50 mg of each compound was placed in a gelatin capsule per 1 Kg of body weight and administered orally to each of the two pigs. As control, only gelatin capsules were administered orally to two pigs.
(§7) 30 mg of each compound was placed in a gelatin capsule per 1 Kg of body weight and administered orally to each of the two pigs. As control, only gelatin capsules were administered orally to two pigs.

[5] = system: canine filaria; Dirofilaria immitis; experiment: Test of anthelmintic effect against canine filaria in naturally infected dogs, subcutaneous injection, microfilaria in blood and adult filaria at autopsy (Test Examples A10, B10, C10, D10); format: in vivo
[6] = system: canine whipworm (Trichuris vulpis); experiment: Anthelmintic test in naturally infected dogs with mixed infections, E.P.G. on 7th day: canine whipworm (Test Examples A3, B3, C3, D3); format: in vivo
Protocol: (§8) Three dogs with mixed infections by canine whipworm (Trichuris vulpis), canine hookworm (Ancylostoma caninum) and canine roundworm (Toxocara canis) (naturally infected dogs) were employed in a group of two and a group of one.
(§9) The compound provided for the test was Compound No.Al, and 20 mg/Kg thereof was placed in a gelatin capsule per 1 Kg of body weight, and administered orally to the two dogs. As control, only a gelatin capsule was administered orally to the one dog.
as §1, §2
(§10) The same method as in Test Example A3, but the compound provided for the test was Compound No. Cl. 30 mg/Kg of this compound was placed in a gelatin capsule per 1 Kg of body weight and administered orally to the two dogs. As control, only gelatin capsules were administered orally to the one dog.

[7] = system: swine whipworm (Trichuris suis); experiment: Test of anthelmintic effect in naturally infected pigs, E.P.G. on 7th day: swine whipworm (Test Examples A9, B9, C9, D9); format: in vivo; conditions: pigs, 20 mg/Kg orally once, one value per pig
Protocol: as §3, §4, §5, §6, §7

[8] = system: Liver fluke; Fasciola hepatica (F. hepatica); experiment: Test of anthelmintic effect against rat infected experimentally with liver fluke (Test Examples A11, B11, C11, D11); format: in vivo; design: key to Presence or absence of fluke egg in fecal matter On 21st day after the last administration: +: indicates detection of fluke egg; -: indicates no detection
[9] = system: canine hookworm (Ancylostoma caninum); experiment: Anthelmintic test in naturally infected dogs with mixed infections, E.P.G. on 7th day: canine hookworm (Test Examples A3, B3, C3, D3); format: in vivo; conditions: dogs, 20 mg/Kg orally once, one value per dog
Protocol: as §8, §9, §1, §2, §10

[10] = system: canine roundworm (Toxocara canis); experiment: Anthelmintic test in naturally infected dogs with mixed infections, E.P.G. on 7th day: canine roundworm (Test Examples A3, B3, C3, D3); format: in vivo; conditions: dogs, 20 mg/Kg orally once, one value per dog
Protocol: as §8, §9, §1, §2, §10

[11] = system: fowl roundworm (Ascaridia galli); experiment: Anthelmintic test in chickens artificially infected with fowl roundworm, single oral dose in gelatin capsule, worm bodies counted within 48 hours (Test Examples A1, B1, C1, D1); format: in vivo; conditions: Ascaridia galli, po, 48 h, read-out: Anthelmintic effect after 48 hours
How it was run: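 Groups of three chickens with confirmed Ascaridia galli infection given a single oral dose in gelatin capsule (10 and 20 mg/kg in A1 and B1; 30 and 50 mg/kg in C1; 15 and 30 mg/kg in D1). Worms expelled over 48 h and those remaining in the gut at necropsy counted to give anthelmintic percentage.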

[12] = system: Trichostrongylidae (Trichostrongylus colubriformis); experiment: Anthelmintic test against sheep Trichostrongylidae in naturally infected sheep, E.P.G. on 7th day (Test Examples A7, B7, C7, D7); format: in vivo
[13] = dogs, 20 mg/Kg x 3 subcutaneously, autopsy on 10th day after the last administration, one value per dog, 20 mg/kg

C#CCN(OC)C(C)=O [Compound A1, N-propargyl-N-acetyl-O-methylhydroxylamine]
inhibition in vivo at 10 ppm ([1]; po, chickens, 10 ppm added to feed, worm count on 21st day, one value per chicken): 80 to 90%
inhibition in vivo at 50 ppm ([1]; po, chickens, 50 ppm added to feed, worm count on 21st day, one value per chicken): 100%
Change of E.P.G. 7th day ([2]; 15 mg/Kg orally once): 0 E.P.G.
Change of E.P.G. Before administration ([2]; 15 mg/Kg orally once, baseline): 1,600 E.P.G.
anthelmintic effect [2]: marked anthelmintic effect
anthelmintic effect ([3]; dogs, one administration of 10 mg/Kg): marked anthelmintic effect
anthelmintic effect ([3]; dogs, one administration of 20 mg/Kg): marked anthelmintic effect
anthelmintic effect ([4]; pigs infected with swine roundworm and swine whipworm (statement covers both), one administration of 20 mg/Kg): marked anthelmintic effect
Change of E.P.G. 7th day ([4]; pigs, 20 mg/Kg orally once, Ascaris suum, one value per pig): 0 E.P.G.
inhibition in vivo at 20 mg/kg ([5]; Dirofilaria immitis, sc, 240 h, dogs, administration of 20 mg/Kg repeated three times, given as about 50% or more, read-out: anthelmintic effect against adult filaria): ≥ 50%
Effect on adult filaria: Number of worms killed/Total parasites [5, 13]: 7/12 and 5/ 7
Effect on adult filaria: Percent of worms killed [5, 13]: 58% and 71%
Number of microfilaria/20 µl On 10th day after the last administration ([5]; dogs, 20 mg/Kg x 3 subcutaneously, earlobe blood, one value per dog): 0 /20 µl
anthelmintic effect against microfilaria (mf) ([5]; dogs, administration of 20 mg/Kg repeated three times): marked anthelmintic effect
anthelmintic effect ([6]; dogs with mixed infections (Trichuris vulpis, Ancylostoma caninum, Toxocara canis; statement covers all three), one administration of 20 mg/Kg): marked anthelmintic effect
Change of E.P.G. Before administration ([6]; dogs, 20 mg/Kg orally once, Trichuris vulpis, baseline, one value per dog, 20 mg/kg): 3,200 E.P.G. and 2,700 E.P.G.
Change of E.P.G. 7th day ([6]; dogs, 20 mg/Kg orally once, Trichuris vulpis, one value per dog): 0 E.P.G.
Change of E.P.G. Before administration ([7]; baseline, 20 mg/kg): 1,300 E.P.G. and 2,100 E.P.G.
Change of E.P.G. 7th day [7]: 0 E.P.G.
Condition of fluke body ([8]; rats, 50 mg/Kg x 5 orally, autopsy, liver, "Denatured" = fluke body is alive but a part of fluke body has changed, one value per rat): dead
Presence or absence of fluke egg in fecal matter On 21st day after the last administration ([8]; rats, 50 mg/Kg x 5 orally, one value per rat): -
Change of E.P.G. Before administration ([9]; baseline, 20 mg/kg): 4,500 E.P.G. and 7,800 E.P.G.
Change of E.P.G. 7th day [9]: 0 E.P.G.
Change of E.P.G. Before administration ([10]; baseline, 20 mg/kg): 5,100 E.P.G. and 2,300 E.P.G.
Change of E.P.G. 7th day [10]: 0 E.P.G.

C=CCN(OCC)C(C)=O [Compound B8, N-allyl-N-acetyl-O-ethylhydroxylamine]
Change of E.P.G. Before administration ([3]; dogs, 20 mg/Kg orally once, baseline, one value per dog, 20 mg/kg): 5,300 E.P.G. and 2,600 E.P.G.
Change of E.P.G. 7th day ([3]; dogs, 20 mg/Kg orally once, one value per dog): 0 E.P.G.
inhibition in vivo at 30 mg/kg ([11]; chickens, 30 mg/Kg orally in gelatin capsule, one value per chicken (No.1-3)): 100%
inhibition in vivo at 50 mg/kg ([11]; chickens, 50 mg/Kg orally in gelatin capsule, one value per chicken (No.1-3)): 100%
inhibition in vivo at 30 mg/kg ([5]; Dirofilaria immitis, sc, 240 h, dog, 30 mg/Kg x 3, subcutaneous injection, read-out: Effect on adult filaria: Percent of worms killed): 58%
inhibition in vivo at 30 mg/kg ([5]; Dirofilaria immitis, sc, 240 h, dogs, administration of 30 mg/Kg repeated three times, given as about 50% or more, read-out: anthelmintic effect against adult filaria): ≥ 50%
Number of microfilaria/20 µl on 10th day after the last administration ([5]; dog, 30 mg/Kg x 3, subcutaneous injection, suspension in 1% Tween 80): 0 /20 µl
Effect on adult filaria: Number of worms killed/ Total parasite ([5]; dog, 30 mg/Kg x 3, subcutaneous injection, 30 mg/kg): 7/12 and 13/21
anthelmintic effect against microfilaria (mf) ([5]; dogs, administration of 30 mg/Kg repeated three times): marked anthelmintic effect
Condition of fluke body ([8]; rat, 50 mg/Kg x 5): dead
Presence or absence of fluke egg in fecal matter On 21st day after the last administration ([8]; rat, 50 mg/Kg x 5): -
anthelmintic effect ([8]; rats, five administrations in a dose of 50 mg/Kg each): marked antihelmintic effect
Change of E.P.G. 7th day ([12]; 20 mg/Kg orally once): 0 E.P.G.
Change of E.P.G. Before administration ([12]; 20 mg/Kg orally once, baseline): 3,400 E.P.G.
anthelmintic effect ([12]; one administration of 20 mg/Kg): marked anthelmintic effect

CC=CCON(CC=CC)C(C)=O [Compound C10]
inhibition in vivo at 25 ppm ([1]; feed or water, chicken, 25 ppm in feed): 80 to 90%
inhibition in vivo at 50 ppm ([1]; feed or water, chicken, 50 ppm in feed): 100%
anthelmintic effect [2]: marked anthelmintic effect
Change of E.P.G. 7th day ([3]; dog, Strongyloides stercoralis, 30 mg/Kg oral in gelatin capsule, one administration): 0
Change of E.P.G. Before administration ([3]; dog, Strongyloides stercoralis, before 30 mg/Kg oral (baseline)): 2,300 and 3,100
anthelmintic effect ([3]; dogs, one administration of 30 mg/Kg): marked anthelmintic effect
inhibition in vivo at 30 mg/kg ([11]; chicken, 30 mg/Kg oral in gelatin capsule, chickens No.1-3): 80 to 90%
inhibition in vivo at 50 mg/kg ([11]; chicken, 50 mg/Kg oral in gelatin capsule, chickens No.1-3): 100%
Change of E.P.G. 7th day ([12]; Trichostrongylus colubriformis, 20 mg/Kg oral in gelatin capsule, one administration): 0
Change of E.P.G. Before administration ([12]; Trichostrongylus colubriformis, before 20 mg/Kg oral (baseline)): 1,800
